Laboratory results as given in US5686626A, “1,3-dihydro-1-amino-2H-indol-2-ones” (Hoechst Marion Roussel, Inc., priority 1995, dated 1997).
Where two headings read alike, the source gives them in different places.

Columns and labels:
[1] = supramaximal electroshock (SES) assay (anticonvulsant activity); assay type: in vivo, male mouse (Charles River, CD-1); settings: Mus musculus, ip, 0.5 h; male mice, i.p., 30 minute pretreat; read-out: ED50 (anticonvulsant, protection from extensor tonus)
Experimental: The compounds of the invention are also useful as anticonvulsants due to their anticonvulsant activity in mammals. Anticonvulsant activity is measured in the male mouse using the supramaximal electroshock (SES) assay described in Arch. Int. Pharmacodyn. 92:97-107, 1952. In this procedure, groups of male mice (Charles River, CD-1, 18-30 gm) are used. Drugs are prepared using distilled water and, if insoluble, a surfactant is added. Control animals receive vehicle. Drugs are routinely administered interperitoneally (i.p.) The dosage volume is 10 ml/kg. A primary screen is given a 30 minute pretreat. The animals' eyes are placed across the output terminals of an A.C. shocker that delivers 206 volts rms for 300 msec. Electrode paste coats the animals' eyes at the point of contact with the terminals. […] Protection is expressed as normalized percent inhibition relative to vehicle control.

[2] = Dark Avoidance Assay (scopolamine induced memory deficit reversal); assay type: in vivo, mice; settings: Mus musculus, read-out: % of Animals With Scopolamine Induced Memory Deficit Reversal; for responders at 0.3 mg/kg: dose 0.3 mg/kg of body wt; for responders at 0.63 mg/kg: dose 0.63 mg/kg of body wt; for responders at 3 mg/kg: dose 3.0 mg/kg of body wt; for responders at 1.25 mg/kg: dose 1.25 mg/kg of body wt
Experimental: The compounds of the present invention are also useful in the treatment of various memory dysfunctions characterized by decreased cholinergic function such as Alzheimer's Disease.
In this assay, mice are tested for their ability to remember an unpleasant stimulus for a period of 24 hours. A mouse is placed in a chamber that contains a dark compartment; a strong incandescent light drives it to the dark compartment, where an electric shock is administered through metal plates on the floor. The animal is removed from the testing apparatus and tested again, 24 hours later, for the ability to remember the electric shock.
If scopolamine, an anticholinergic that is known to cause memory impairment, is administered before an animal's initial exposure to the test chambers, the animal re-enters the dark compartment shortly after being placed in the test chamber 24 hours later. The effect of scopolamine is blocked by an active test compound, resulting in a greater interval before re-entry into the dark compartment.
The results for an active compound are expressed as the percent of a group of animals in which the effect of scopolamine is blocked, as manifested by an increased interval between being placed in the test chamber and re-entering the dark compartment. Presented in Table 2 is the activity of some of the compounds of the invention in this assay.

[3] = phenyl-para-quinone writhing assay in mice (analgesia); assay type: in vivo; settings: for ED50: Mus musculus, sc, read-out: ED50 of Writhing (subcutaneous dose at which 50% of the phenyl-para-quinone induced writhing is inhibited)
[4] = mice, dose 1.0 mg/kg of body wt, retest after 24 hours

Compound: CCCN(c1ccncc1)N1C(=O)C(C)(C)c2ccccc21 [1,3-Dihydro-3,3-dimethyl-1-(propyl-4-pyridinylamino)-2H-indol-2-one]
- ED50 [1]: 30.7 mg/kg
- responders at 0.3 mg/kg ([2]; mice, retest after 24 hours): 20%

Compound: Nc1c2c(nc3ccccc13)CCCC2 [Tacrine, reference compound]
- responders at 0.63 mg/kg ([2]; mice, retest after 24 hours): 13%

Compound: CCCN(c1ccncc1)N1C(=O)C2(Cc3ccccc3C2)c2ccccc21 [1,3-dihydro-1'-(propyl-4-pyridinylamino)spiro[2H-indene-2,3'-[3H]indol]-2'(1'H)-one]
- responders at 3 mg/kg ([2]; mice, retest after 24 hours): 25%

Compound: CCCN(c1ccncc1)N1C(=O)C2(CCN(C)CC2)c2ccccc21 [1'Methyl-1-(propyl-4-pyridinylamino)spiro-[3H-indole-3,4'-piperidin]-2(1 H)-one]
- responders at 1 mg/kg ([2]; 24 h): 20%

Compound: O=C1Cc2ccccc2N1Nc1ccncc1F [1,3-Dihydro-1-(3-fluoro-4-pyridinylamino)-2H-indol-2-one]
- responders at 1 mg/kg [2, 4]: 27%
- responders at 3 mg/kg ([2]; mice, retest after 24 hours): 27%

Compound: NN1C(=O)C(Cc2ccncc2)(Cc2ccncc2)c2ccccc21 [1-Amino-3,3-bis(4-pyridinylmethyl)-1,3-dihydro-2H-indol-2-one]
- responders at 0.3 mg/kg ([2]; mice, retest after 24 hours): 21%

Compound: CC1C(=O)N(Nc2ccncc2F)c2ccccc21 (stereo not drawn) [1,3-Dihydro-1-[(3-fluoro-4-pyridinyl)amino]-3-methyl-2H-indol-2-one hemifumarate]
- responders at 0.3 mg/kg ([2]; mice, retest after 24 hours): 27%
- responders at 3 mg/kg ([2]; mice, retest after 24 hours): 20%

Compound: CCCN(c1ccncc1)N1C(=O)Cc2ccccc21 [1,3-Dihydro-1-(propyl-4-pyridinylamino)-2H-indol-2-one]
- % Inhibition of Writhing (% decrease in writhing at a given dose) ([3]; 20 mg/kg, s.c.): -58%
- ED50 [1]: 15.9 mg/kg
- responders at 1.25 mg/kg ([2]; mice, retest after 24 hours): 27%

Compound: O=C(O)c1ccccc1O [Salicylic Acid, reference compound]
- ED50 [3]: 3.28 mg/kg

Compound: CCC1(c2ccccc2)C(=O)NC(=O)NC1=O [Phenobarbital, reference compound]
- ED50 [1]: 8.4 mg/kg

Compound: CC[C@@H]1C(=O)OC[C@@H]1Cc1cncn1C [Pilocarpine, reference compound]
- responders at 1.25 mg/kg ([2]; mice, retest after 24 hours): 19%

Compound: CCCN(c1ccncc1F)N1C(=O)Cc2ccccc21 [1,3-Dihydro-1-[(3-fluoro-4-pyridinyl)-propylamino]-2H-indol-2-one]
- responders at 0.3 mg/kg ([2]; mice, retest after 24 hours): 20%
- responders at 3 mg/kg ([2]; mice, retest after 24 hours): 20%

Compound: CCCN(c1ccncc1F)N1C(=O)C(C)(C)c2ccccc21 [1,3-dihydro-3,3-dimethyl-1-[4-(3-fluoropyridinyl)propylamino]2H-indol-2-one]
- responders at 0.3 mg/kg ([2]; mice, retest after 24 hours): 21%
- responders at 1 mg/kg [2, 4]: 27%

Compound: O=C1Cc2ccccc2N1Nc1ccncc1 [1,3-Dihydro-1-(4-pyridinylamino)-2H-indol-2-one]
- ED50 [3]: 0.69 mg/kg
- responders at 0.31 mg/kg ([2]; mice, dose 0.31 mg/kg of body wt, retest after 24 hours): 27%
- responders at 0.63 mg/kg ([2]; mice, retest after 24 hours): 27%
- responders at 1.25 mg/kg ([2]; mice, retest after 24 hours): 27%
